Assay results published in patent US8846873B2, “Antibodies directed to GPNMB and uses thereof” (Celldex Therapeutics, Inc., priority 2004, dated 2014).

Experiments:
[1] = Pharmacokinetics of CR011-vcMMAE after intravenous administration (sandwich ELISA of serum); type: in vivo, athymic mice; settings: for A (pre-exponential constant for alpha phase) / AUC (total area under the curve from 0 to infinity) / Alpha (exponential rate constant for alpha phase) / Alpha-Half Life / B (pre-exponential constant for beta phase) / Beta (exponential rate constant for beta phase) / Beta- Half Life / Cl (total or systemic clearance) / Cmax / Volume (volume of central compartment) / Vss (steady-state volume of distribution): athymic mice, serum
Description: Abbreviations: A: Pre-exponential constant for alpha phase; Alpha: Exponential rate constant for alpha phase; AUC Total area under the curve from 0 to infinity; B: Pre-exponential constant for beta phase; Beta: Exponential rate constant for beta phase; Cl: Total or systemic clearance; Cmax: Maximum observed concentration; MRT: Mean residence time; Volume: Volume of central compartment; Vss: Steady-state volume of distribution.

SK-Mel-2 cells [2] = test: Clonogenic assay after GPNMB siRNA transfection; type: cell-based, human
Protocol: SK-MeI-2 cells are transfected with 50 nM of control siRNA or siRNA targeting GPNMB. A. Cell lysates are prepared from the transfected SK-Mel-2 cells 2 and 4 days post-transfection and the expression of GPNMB (upper panel) or actin (lower panel) is determined by immunoblotting. Lane 1: Mock (oligofectamine) transfection. Lane 2: Control siRNA transfection. Lane 3: GPNMB siRNA transfection. B. Flow cytometry analysis of GPNMB expression 2 and 4 days after transfection. SK-Mel-2 cells are transfected with mock, control siRNA or GPNMB siRNA as indicted in the Materials and Methods. C. […] The surviving fraction is normalized to the untreated control and expressed as a percentage of control using GraphPad Prism graphing software. Each treatment is performed in triplicate. A representative experiment from two independent studies is shown.
Cells were plated in 96-well plates and allowed to recover overnight. […] The cells were then transferred into 6-well plates and allowed to form colonies. Colonies were stained with Giemsa stain (Sigma) and counted. The surviving cell fractions were calculated based upon the ratio of the treated sample and the untreated control. The results were expressed as a percentage of control using GraphPad Prism Version 4 software.
The amount of GPNMB expression was reduced for at least 7 days after transfection.

SK-Mel-2 cells [3] = test: Cell cycle analysis (BrdU / propidium iodide flow cytometry); type: cell-based, human; settings: for % G1 / % G2/M / % S-phase / % Sub-G1: SK-Mel-2, 24 hour
Protocol: (§1) Briefly, cells were pulsed at the indicated times with 30 μM of bromodeoxyuridine (BrdU, Sigma) for 30 min, harvested, fixed and permeabilized in methanol. Nascent DNA synthesis was detected by anti-bromodeoxyuridine-FITC (BD Biosciences, San Jose, Calif.) staining. Total DNA content was detected using propidium iodide (PI, Sigma). For apoptosis analysis, cells were treated as above and labeled with Annexin V-FITC followed by propidium iodide exclusion using the Annexin V-FITC Apoptosis Detection kit I (BD PharMingen, San Diego, Calif.) according to the manufacturer's protocols. Flow cytometry (as described in the previous Example) was used to assay both cell cycle and apoptosis studies.
(§2) DNA synthesis and cell cycle progression were determined by flow cytometry (Table 52).

TK-10 cells [4] = test: as above; type: cell-based, human; settings: for % G1 / % G2/M / % S-phase / % Sub-G1: TK-10, 24 hour
Protocol: as §1, §2

SK-Mel-2 cells [5] = test: Apoptosis analysis (Annexin V-FITC / propidium iodide); type: cell-based, human; settings: for % AnnV+/PI+ UR / % AnnV+/PI− LR / % AnnV−/PI+ UL: SK-Mel-2, 48 hour
Protocol: as §1
(§3) To investigate this possibility, analysis of apoptosis using Annexin-V surface binding and loss of propidium iodide (PI) exclusion was performed.

TK-10 cells [6] = test: as above; type: cell-based, human; settings: TK-10, 48 hour
Protocol: as §1, §3

With “CR011-vcMMAE: anti-GPNMB antibody 1.15.1 coupled to monomethylauristatin E via protease-sensitive valine-citrulline linker” the “A (pre-exponential constant for alpha phase)” value ([1]; 1 mg/kg intravenous) was 8.97 µg/mL, the “AUC (total area under the curve from 0 to infinity)” value ([1]; 1 mg/kg intravenous) was 3712 µg·h/mL and the “Alpha (exponential rate constant for alpha phase)” value ([1]; 1 mg/kg intravenous) was 0.179 h⁻¹. For the same substance, the “Alpha-Half Life” value ([1]; 1 mg/kg intravenous) was 0.162 days, the “B (pre-exponential constant for beta phase)” value ([1]; 1 mg/kg intravenous) was 9.82 µg/mL and the “Beta (exponential rate constant for beta phase)” value ([1]; 1 mg/kg intravenous) was 0.00269 h⁻¹. For the same substance, the “Beta- Half Life” value ([1]; 1 mg/kg intravenous) was 10.8 days, the “Cl (total or systemic clearance)” value ([1]; 1 mg/kg intravenous) was 6.46 mL/day/kg and the Cmax ([1]; 1 mg/kg intravenous) was 18.8 µg/mL. For the same substance, the “Volume (volume of central compartment)” value ([1]; 1 mg/kg intravenous) was 0.0532 L/kg, the “Vss (steady-state volume of distribution)” value ([1]; 1 mg/kg intravenous) was 0.099 L/kg and the “A (pre-exponential constant for alpha phase)” value ([1]; 10 mg/kg intravenous) was 74.6 µg/mL. The “AUC (total area under the curve from 0 to infinity)” value ([1]; 10 mg/kg intravenous) was 41210 µg·h/mL, the “Alpha (exponential rate constant for alpha phase)” value ([1]; 10 mg/kg intravenous) was 0.0812 h⁻¹ and the “Alpha-Half Life” value ([1]; 10 mg/kg intravenous) was 0.3555 days. For the same substance, the “B (pre-exponential constant for beta phase)” value ([1]; 10 mg/kg intravenous) was 113 µg/mL, the “Beta (exponential rate constant for beta phase)” value ([1]; 10 mg/kg intravenous) was 0.00281 h⁻¹ and the “Beta- Half Life” value ([1]; 10 mg/kg intravenous) was 10.3 days. The “Cl (total or systemic clearance)” value ([1]; 10 mg/kg intravenous) was 5.83 mL/day/kg, the Cmax ([1]; 10 mg/kg intravenous) was 188 µg/mL and the “Volume (volume of central compartment)” value ([1]; 10 mg/kg intravenous) was 0.0532 L/kg. For the same substance, the “Vss (steady-state volume of distribution)” value ([1]; 10 mg/kg intravenous) was 0.0845 L/kg, the T1/2β ([1]; 1 or 10 mg/kg intravenously) was 10.3 days and the “contribution of the initial phase (α) to the total AUC” value ([1]; 1 or 10 mg/kg intravenously) was < 2%. The “volume of distribution at steady state (Vss)” value ([1]; intravenous) was “very low”, the “sensitivity to growth-inhibitory activity following siRNA-mediated GPNMB knockdown” value (SK-Mel-2 cells [2]) was “less sensitive” and the “decreased percentage of cells in G1 and S-phase compared to untreated cells” value (SK-Mel-2 cells [3]; 1000 ng/mL, 24 hrs) was 10%. For the same substance, the “increased percentage of cells in G2/M compared to untreated cells” value (SK-Mel-2 cells [3]; 1000 ng/mL, 24 hrs) was 18.6%, the “increased percentage of cells in G2/M” value (SK-Mel-2 cells [3]; 1000 ng/mL, 48 hr) was 24% and the “reduced percentage of cells in G1 and S-phase” value (SK-Mel-2 cells [3]; 1000 ng/mL, 48 hr) was 11%. For the same substance, the “% G1” value (SK-Mel-2 cells [3]; 100 ng/mL) was 56.0%, the “% G2/M” value (SK-Mel-2 cells [3]; 100 ng/mL) was 12.4% and the “% S-phase” value (SK-Mel-2 cells [3]; 100 ng/mL) was 26.9%. The “% Sub-G1” value (SK-Mel-2 cells [3]; 100 ng/mL) was 0.2%, the “% G1” value (SK-Mel-2 cells [3]; 1000 ng/mL) was 43.7% and the “% G2/M” value (SK-Mel-2 cells [3]; 1000 ng/mL) was 28.5%. For the same substance, the “% S-phase” value (SK-Mel-2 cells [3]; 1000 ng/mL) was 20.0%, the “% Sub-G1” value (SK-Mel-2 cells [3]; 1000 ng/mL) was 1.1% and the “cycling of GPNMB-negative cells” value (TK-10 cells [4]; 1000 ng/mL) was “did not affect the cycling”. The “% G1” value (TK-10 cells [4]; 100 ng/mL) was 51.1%, the “% G2/M” value (TK-10 cells [4]; 100 ng/mL) was 4.5% and the “% S-phase” value (TK-10 cells [4]; 100 ng/mL) was 35.1%. The “% Sub-G1” value (TK-10 cells [4]; 100 ng/mL) was 0.7%, the “% G1” value (TK-10 cells [4]; 1000 ng/mL) was 52.6% and the “% G2/M” value (TK-10 cells [4]; 1000 ng/mL) was 3.9%. For the same substance, the “% S-phase” value (TK-10 cells [4]; 1000 ng/mL) was 34.2%, the “% Sub-G1” value (TK-10 cells [4]; 1000 ng/mL) was 0.8% and the “increase in mono-stained (Annexin-V+/PI−) cells” value (SK-Mel-2 cells [5]; 1000 ng/mL, 48 hr) was 11%. The “% AnnV+/PI+ UR” value (SK-Mel-2 cells [5]; 100 ng/mL) was 0.40%, the “% AnnV+/PI− LR” value (SK-Mel-2 cells [5]; 100 ng/mL) was 9.37% and the “% AnnV−/PI+ UL” value (SK-Mel-2 cells [5]; 100 ng/mL) was 0.30%. The “% AnnV+/PI+ UR” value (SK-Mel-2 cells [5]; 1000 ng/mL) was 2.02%, the “% AnnV+/PI− LR” value (SK-Mel-2 cells [5]; 1000 ng/mL) was 13.83% and the “% AnnV−/PI+ UL” value (SK-Mel-2 cells [5]; 1000 ng/mL) was 2.08%. For the same substance, the “% AnnV+/PI+ UR” value (TK-10 cells [6]; 100 ng/mL) was 0.57%, the “% AnnV+/PI− LR” value (TK-10 cells [6]; 100 ng/mL) was 1.00% and the “% AnnV−/PI+ UL” value (TK-10 cells [6]; 100 ng/mL) was 0.71%. The “% AnnV+/PI+ UR” value (TK-10 cells [6]; 1000 ng/mL) was 0.83%, the “% AnnV+/PI− LR” value (TK-10 cells [6]; 1000 ng/mL) was 0.56% and the “% AnnV−/PI+ UL” value (TK-10 cells [6]; 1000 ng/mL) was 0.86%.
